# Values quoted from earlier work in article PMC5225183, “Fingerprinting of neurotoxic compounds using a mouse embryonic stem cell dual luminescence reporter assay” (Archives of Toxicology, 2016).
# Tests used:
# [1] = parameters: method as in Australian Therapeutic Goods Administration [2014]; conditions: rats, toxic dose level 10 mg/kg/day; ref Australian Therapeutic Goods Administration [2014]; cited from earlier work
# Thy1-GFP transgenic rats = tested on: Thy1-GFP transgenic rats; parameters: method as in Sun et al. [2012]; conditions: ref Sun et al. [2012]; cited from earlier work
# [2] = tested on: neural crest cell migration; parameters: method as in Zimmer et al. [2012]; conditions: ref Zimmer et al. [2012]; cited from earlier work
compound,measurement,setting,value
C[C@]12CC[C@H](O)CC1=CC[C@@H]1[C@@H]2CC[C@]2(C)C(c3cccnc3)=CC[C@@H]12 [Abiraterone],AUC,[1],34 ng·h/mL
same,Cmax,[1],10.8 ng/mL
COC1=C2C[C@@H](C)C[C@H](OC)[C@H](O)[C@@H](C)/C=C(\C)[C@H](OC(N)=O)[C@@H](OC)/C=C\C=C(/C)C(=O)NC(=CC1=O)C2=O [Geldanamycin],dose affecting nerve recovery / neurodifferentiation,Thy1-GFP transgenic rats,0.2 mg/kg/day
CCCC(CCC)C(=O)O [Valproic acid],concentration inhibiting neural crest cell migration,[2],10 to 100 µM
